Data published in ChEMBL document CHEMBL3774329, “Synthesis and Evaluation of Oxyguanidine Analogues of the Cysteine Protease Inhibitor WRR-483 against Cruzain” (ACS Med Chem Lett, 2016).
Activity calls are given as the source filed them. The calls are words filed in the database; no cut-off is given here.

Columns and labels:
[1] = molecular target: Cruzipain (Trypanosoma cruzi) (UniProt P25779); test: Inhibition of His-tagged recombinant Trypanosoma cruzi cruzain using Z-Phe-Arg-AMC as substrate assessed as ratio of Kinact to Ki preincubated for 5 mins at pH 5.5 by spectrofluorometric analysis
[2] = molecular target: Cruzipain (Trypanosoma cruzi) (UniProt P25779); test: Inhibition of His-tagged recombinant Trypanosoma cruzi cruzain using Z-Phe-Arg-AMC as substrate assessed as ratio of Kinact to Ki preincubated for 5 mins at pH 8 by spectrofluorometric analysis
[3] = molecular target: Cruzipain (Trypanosoma cruzi) (UniProt P25779); test: Ratio of Kinact/Ki at pH 5.5 to Kinact/Ki at pH 8 for inhibition of His-tagged recombinant Trypanosoma cruzi cruzain
Rattus norvegicus [4] = test: Drug metabolism in Sprague-Dawley rat assessed as WRR-671 formation at 3 mg/kg, iv over 8 hrs by LC-MS/MS analysis; type: ADME, organism-based; conditions: in vivo
Cytochrome P450 2D6 = Cytochrome P450 2D6 (Homo sapiens, UniProt P10635); test: Inhibition of CYP2D6 in human liver microsomes at 1 to 10 uM after 10 mins in presence of NADPH; type: ADME
[5] = Stability of compound in mouse liver microsomes at 1 uM measured at 5 to 60 mins in presence of NADPH by LC-MS/MS analysis; type: ADME
[6] = molecular target: T1, Cysteine proteinase 1 (Entamoeba histolytica) (UniProt Q01957); test: Inhibition of Entamoeba histolytica cysteine protease1 using ZRR-AMC peptide as substrate assessed as release of AMC at 250 pM to 1 uM incubated for 15 mins by fluorometric analysis
T1 sequence (whole entry): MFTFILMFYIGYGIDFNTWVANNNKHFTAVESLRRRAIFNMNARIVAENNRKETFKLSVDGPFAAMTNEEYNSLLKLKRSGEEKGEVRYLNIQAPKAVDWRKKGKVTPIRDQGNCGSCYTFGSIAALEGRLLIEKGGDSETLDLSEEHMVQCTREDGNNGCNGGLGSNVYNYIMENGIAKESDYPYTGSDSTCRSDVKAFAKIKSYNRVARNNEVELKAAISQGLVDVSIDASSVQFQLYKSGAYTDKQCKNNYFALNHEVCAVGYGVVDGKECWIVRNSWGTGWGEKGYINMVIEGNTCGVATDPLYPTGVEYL

Liver microsome [7] = test: Stability of compound in rat liver microsomes at 1 uM measured at 5 to 60 mins in presence of NADPH by LC-MS/MS analysis; type: ADME
Liver microsome [8] = test: Stability of compound in human liver microsomes at 1 uM measured at 5 to 60 mins in presence of NADPH by LC-MS/MS analysis; type: ADME
[9] = molecular target: Cruzipain (Trypanosoma cruzi) (UniProt P25779); test: Ratio of Kinact/Ki at pH 8 to Kinact/Ki at pH 5.5 for inhibition of His-tagged recombinant Trypanosoma cruzi cruzain
Trypanosoma cruzi = test: Antiparasitic activity against Trypanosoma cruzi CA-I/72 trypomastigote infected in mouse C2C12 cells after 72 hrs by DAPI-staining based microscopic analysis; type: functional, organism-based; conditions: CA-I/72, C2C12, 72 h
Cytochrome P450 2C9 = Cytochrome P450 2C9 (Homo sapiens, UniProt P11712); test: Inhibition of CYP2C9 in human liver microsomes at 1 to 10 uM after 10 mins in presence of NADPH; type: ADME
Plasma = test: Drug degradation in C57BL/6 mouse plasma assessed as proteolytic cleavage in presence of EDTA by LC-MS/MS analysis; type: ADME, cell-free
Rattus norvegicus [10] = test: Drug level in Sprague-Dawley rat treated with WRR-668 at 3 mg/kg, iv over 8 hrs by LC-MS/MS analysis; type: ADME, organism-based; conditions: in vivo

Cruzipain (Trypanosoma cruzi), sequence (P25779 123-467 limits assumed): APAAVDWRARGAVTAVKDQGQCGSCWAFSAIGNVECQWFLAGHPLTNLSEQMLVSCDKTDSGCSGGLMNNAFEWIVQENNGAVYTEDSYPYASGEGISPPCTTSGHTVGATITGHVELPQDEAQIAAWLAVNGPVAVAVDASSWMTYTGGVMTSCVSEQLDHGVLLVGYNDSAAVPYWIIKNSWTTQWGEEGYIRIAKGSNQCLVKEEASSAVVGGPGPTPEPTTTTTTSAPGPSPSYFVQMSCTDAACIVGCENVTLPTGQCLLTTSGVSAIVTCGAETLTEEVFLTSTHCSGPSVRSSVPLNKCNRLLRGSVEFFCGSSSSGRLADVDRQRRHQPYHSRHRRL
Cytochrome P450 2D6, sequence (P10635 whole entry): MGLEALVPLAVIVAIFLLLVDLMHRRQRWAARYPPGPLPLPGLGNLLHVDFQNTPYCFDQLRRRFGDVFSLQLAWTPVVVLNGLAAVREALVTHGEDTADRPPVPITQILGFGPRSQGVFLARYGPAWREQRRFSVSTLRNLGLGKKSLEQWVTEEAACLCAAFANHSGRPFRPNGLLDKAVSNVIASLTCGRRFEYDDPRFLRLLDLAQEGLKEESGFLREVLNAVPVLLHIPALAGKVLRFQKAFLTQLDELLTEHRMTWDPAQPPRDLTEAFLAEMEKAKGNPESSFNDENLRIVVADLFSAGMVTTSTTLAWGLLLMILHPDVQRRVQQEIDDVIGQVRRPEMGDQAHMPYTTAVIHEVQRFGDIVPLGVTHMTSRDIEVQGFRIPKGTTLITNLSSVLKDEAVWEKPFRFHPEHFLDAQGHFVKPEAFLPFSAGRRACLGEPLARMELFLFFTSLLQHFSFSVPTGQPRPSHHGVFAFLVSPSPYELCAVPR
Cytochrome P450 2C9, sequence (P11712 whole entry): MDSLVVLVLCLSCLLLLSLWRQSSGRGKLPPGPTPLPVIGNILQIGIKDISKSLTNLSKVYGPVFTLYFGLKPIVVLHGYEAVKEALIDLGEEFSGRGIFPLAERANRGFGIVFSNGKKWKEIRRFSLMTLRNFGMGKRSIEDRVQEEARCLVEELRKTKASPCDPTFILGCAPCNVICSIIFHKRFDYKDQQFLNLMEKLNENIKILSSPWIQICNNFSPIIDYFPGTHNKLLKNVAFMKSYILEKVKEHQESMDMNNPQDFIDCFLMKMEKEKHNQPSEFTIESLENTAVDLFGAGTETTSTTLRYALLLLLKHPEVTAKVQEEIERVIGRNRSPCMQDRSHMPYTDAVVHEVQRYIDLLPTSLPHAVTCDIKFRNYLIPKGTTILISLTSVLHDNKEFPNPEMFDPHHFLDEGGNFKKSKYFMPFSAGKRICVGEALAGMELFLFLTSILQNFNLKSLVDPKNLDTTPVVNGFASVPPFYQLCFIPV

Ratio [1] [M⁻¹ s⁻¹]	Ratio [2] [M⁻¹ s⁻¹]	inhibition (INH) (Cytochrome P450 2D6)	Ratio [9]	Compound	further results
93100	138000	–	–	CN1CCN(C(=O)N[C@@H](CCONC(=N)N)C(=O)N[C@H](/C=C/S(=O)(=O)c2ccccc2)CCc2ccccc2)CC1	–
320000	1500	–	–	CN1CCN(C(=O)N[C@@H](CCCONC(=N)N)C(=O)N[C@H](/C=C/S(=O)(=O)c2ncccn2)CCc2ccccc2)CC1	Ratio [3]: > 5
214000	308000	Active	–	CN1CCN(C(=O)N[C@@H](CCCONC(=N)N)C(=O)N[C@H](/C=C/S(=O)(=O)c2ccccn2)CCc2ccccc2)CC1	Drug metabolism (Rattus norvegicus [4]): metabolite_detected; Stability [5]: Stable; inhibition [6]: Active; Stability (Liver microsome [7]): Stable; Stability (Liver microsome [8]): Stable
8100	3100	–	–	CN1CCN(C(=O)N[C@@H](CCCNC(=N)N)C(=O)N[C@H](/C=C/S(=O)(=O)c2ccccn2)CCc2ccccc2)CC1	inhibition [6]: Active
9100	65700	Active	> 3	CONC(=N)NCCC[C@H](NC(=O)N1CCN(C)CC1)C(=O)N[C@H](/C=C/S(=O)(=O)c1ccccc1)CCc1ccccc1	EC50 (Trypanosoma cruzi): 269 nM
43300	53400	Active	–	CN1CCN(C(=O)N[C@@H](CCCONC(=N)N)C(=O)N[C@H](/C=C/S(=O)(=O)c2ccccc2)CCc2ccccc2)CC1.Cl.Cl	–
11000	59700	–	> 3	CN1CCN(C(=O)N[C@@H](CCCCNC(=N)N)C(=O)N[C@H](/C=C/S(=O)(=O)c2ccccc2)CCc2ccccc2)CC1	–
36600	113000	–	> 3	CN1CCN(C(=O)N[C@@H](CCCNC(=N)N)C(=O)N[C@H](/C=C/S(=O)(=O)c2ccccc2)CCc2ccccc2)CC1	–
158000	32500	–	–	CN1CCN(C(=O)N[C@@H](Cc2ccccc2)C(=O)N[C@H](/C=C/S(=O)(=O)c2ccccc2)CCc2ccccc2)CC1	Ratio [3]: > 5
25000	1.17e+06	Active	> 3	CONC(=N)NCCC[C@H](NC(=O)N1CCN(C)CC1)C(=O)N[C@H](/C=C/S(=O)(=O)c1ccccn1)CCc1ccccc1	Stability [5]: Stable; inhibition [6]: Active; Stability (Liver microsome [7]): Stable; Stability (Liver microsome [8]): Stable; inhibition (INH) (Cytochrome P450 2C9): Active; Stability (Plasma): Unstable
–	–	–	–	CN1CCN(C(=O)N[C@@H](CCCO)C(=O)N[C@H](/C=C/S(=O)(=O)c2ccccc2)CCc2ccccc2)CC1	Drug metabolism (Rattus norvegicus [10]): metabolite_detected
